{"source": "patent US20130116302A1", "about": "“PHARMACEUTICAL COMPOSITION FOR THE TREATMENT OF CHLAMYDIAL INFECTION” (Max-Planck-Gesellschaft zur Foerderung der Wissenschaften …, priority 2010, published 2013)", "key": {"Chlamydia": {"tested_on": "Chlamydia", "experiment": "effect of chemical inhibitors of GMPS on Chlamydia infection", "type": "cell-based", "conditions": "for Chlamydia replication: chemical inhibitor of GMPS added to infected cells", "procedure": "The effect of chemical inhibitors of GMPS on Chlamydia infection was tested."}, "Ctr": {"tested_on": "Ctr", "conditions": "Su et al., 2004; cited from earlier work"}, "cPLA2 [1]": {"tested_on": "cPLA2", "conditions": "Su et al., 2004; cited from earlier work"}, "cPLA2 [2]": {"tested_on": "cPLA2", "conditions": "30 hours post-infection; FIG. 3A", "procedure": "(§1) Western blotting analysis (30 hours post-infection) of (A) uninfected and Ctr-infected cells with and without U0126, (B) uninfected and Ctr-infected cells transfected with siRNAs targeting luciferase or MEK1 and 2, and (C) uninfected and Ctr-infected cells transfected with siRNAs targeting luciferase, K-Ras, or Raf-1. β-actin was used as a loading control. (D) Uninfected and Ctr-infected cells treated with or without UO126 were lysed at 48 hours post-infection and these samples were used to infect freshly seeded cells. These cells were fixed 24 hours post-infection and the infectivity was quantified. Data shown are the mean±SD of three experiments normalized to mock-treated, infected cells. (E) Uninfected and Ctr-infected cells, untransfected of transfected with siRNAs specific for luciferase, K-Ras, or Raf-1 were lysed 48 hours post-infection and these samples were then used to infect freshly seeded cells. These cells were fixed 24 hours post-infection and the infectivity of the bacteria was quantified. […] Western blots depicted in (A) to (C) are representative of three experiments."}, "[3]": {"tested_on": "Chlamydia trachomatis (Ctr)", "conditions": "10 μM or 100 μM U0126 added 2 h after infection; lysed 48 h p.i.; FIG. 3D", "procedure": "as §1"}, "ERK": {"tested_on": "ERK", "conditions": "30 hours post-infection; FIG. 3A", "procedure": "as §1"}, "Leishmania donovani": {"tested_on": "Leishmania donovani", "conditions": "vector and host form; cited from earlier work"}, "PPAT, GMPS, CAD, CTPS": {"tested_on": "PPAT, GMPS, CAD, CTPS", "conditions": "de novo pathway of purine and pyrimidine synthesis; cited from earlier work"}, "GMPS": {"target": "GMPS (Escherichia coli, UniProt P04079)", "sequence (P04079 whole entry)": "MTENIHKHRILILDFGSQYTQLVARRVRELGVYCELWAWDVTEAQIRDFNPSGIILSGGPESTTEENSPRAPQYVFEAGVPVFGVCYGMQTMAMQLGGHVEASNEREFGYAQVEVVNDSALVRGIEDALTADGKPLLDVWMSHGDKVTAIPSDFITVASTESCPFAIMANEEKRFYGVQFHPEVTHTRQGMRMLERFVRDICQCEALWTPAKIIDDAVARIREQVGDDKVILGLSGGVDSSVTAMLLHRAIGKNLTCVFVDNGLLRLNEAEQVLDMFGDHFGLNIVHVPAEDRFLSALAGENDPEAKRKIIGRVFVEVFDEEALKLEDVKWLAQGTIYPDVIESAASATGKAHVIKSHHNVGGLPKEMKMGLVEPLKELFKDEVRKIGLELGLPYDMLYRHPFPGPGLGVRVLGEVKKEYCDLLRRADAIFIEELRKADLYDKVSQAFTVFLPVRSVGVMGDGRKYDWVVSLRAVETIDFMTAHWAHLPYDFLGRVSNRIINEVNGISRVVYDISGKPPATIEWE", "conditions": "Chittur et al., 2001, cited from earlier work"}, "bloodstream T. brucei [4]": {"tested_on": "bloodstream T. brucei", "conditions": "mouse model; cited from earlier work"}, "[5]": {"tested_on": "cellular UTP, CTP, GMP, ATP, ITP", "conditions": "Neil et al., 1979; cited from earlier work"}, "bloodstream T. brucei [6]": {"tested_on": "bloodstream T. brucei", "conditions": "bloodstream T. brucei in culture; cited from earlier work"}, "P. falciparum": {"tested_on": "P. falciparum", "conditions": "in vitro; cited from earlier work"}, "C. trachomatis L2": {"tested_on": "C. trachomatis L2", "experiment": "genome-wide siRNA-based screen in human epithelial cells, formation of Chlamydia infectious progeny", "type": "cell-based", "conditions": "Table 1b, primary screen, genes of nucleotide metabolism", "source_text": "We performed a genome-wide siRNA-based screen in human epithelial cells to identify host cell factors that are essential for Chlamydia infection using the Qiagen Hu_Genome Set V1.0 and the Human Druggable Genome siRNA Set V2.0. C. trachomatis L2 was used."}}, "note": "Read-outs that look alike come from different tables or passages of the source.", "data": [{"molecule": "C=C1O[C@@](CO)(n2cnc3c(N)ncnc32)[C@H](O)[C@@H]1O", "note": "[Decoyinine]", "values": [{"measurement": "Chlamydia replication", "setting": "Chlamydia", "result": "no inhibitory effect"}]}, {"molecule": "N#CC(=C(/N)Sc1ccccc1N)/C(C#N)=C(\\N)Sc1ccccc1N", "note": "[U0126]", "values": [{"measurement": "infectivity of Ctr", "setting": "Ctr", "result": "decreases"}, {"measurement": "extent of phosphorylation of cPLA2", "setting": "cPLA2 [1]", "result": "reduces"}, {"measurement": "phosphorylation of cPLA2 in response to infection", "setting": "cPLA2 [2]", "result": "repressed"}, {"measurement": "infectivity of Ctr", "setting": "[3]", "result": "decreased"}, {"measurement": "phosphorylation of ERK in response to infection", "setting": "ERK", "result": "repressed"}]}, {"molecule": "N[C@H](C(=O)O)[C@@H]1CC(Cl)=NO1", "note": "[acivicin, L-[αS,5S]-α-amino-3-chloro-4,5-dihydro-5-isoxazoleacetic acid]", "values": [{"measurement": "killing of Leishmania donovani", "setting": "Leishmania donovani", "result": "kills both the vector and the host form"}, {"measurement": "inhibition of PPAT, GMPS, CAD and CTPS", "setting": "PPAT, GMPS, CAD, CTPS", "result": "inhibits"}, {"measurement": "inhibition of GMPS (γ-glutamine amidotransferase activity)", "setting": "GMPS", "result": "inhibit"}, {"measurement": "inhibition of GMPS (γ-glutamine amidotransferase activity)", "setting": "GMPS; listed as Acivicin", "result": "irreversibly inhibits"}, {"measurement": "antitrypanosomal activity", "setting": "bloodstream T. brucei [4]", "result": "antitrypanosomal activity"}, {"measurement": "cellular nucleotide concentrations", "setting": "[5]", "result": "decrease of cellular UTP, CTP, and GMP concentrations, with no alteration in ATP or ITP pools"}, {"measurement": "antitrypanosomal activity", "setting": "bloodstream T. brucei [6]", "result": "antitrypanosomal activity"}, {"measurement": "Chlamydia replication after addition of the nucleotides GTP and GMP", "setting": "Chlamydia; cells to which acivicin was added", "result": "recover Chlamydia replication"}, {"measurement": "Chlamydia replication", "setting": "Chlamydia", "result": "complete block"}, {"measurement": "growth of P. falciparum", "setting": "P. falciparum", "result": "inhibit the growth"}]}, {"molecule": "Hs_PDE4A_4: siRNA, target gene PDE4A (sense ATGGGAAGTCGTGTCATCCTA; chemistry not given here; the letters are possibly those of the target site)", "values": [{"measurement": "Infectivity phenotype upon Knockdown", "setting": "C. trachomatis L2", "result": "down"}]}, {"molecule": "Hs_PDE4D 3: siRNA, target gene PDE4D (sense TACCCACTAATGGACAATCAA; chemistry not given here)", "values": [{"measurement": "Infectivity phenotype upon Knockdown", "setting": "C. trachomatis L2", "result": "down"}]}, {"molecule": "Hs_PDE4D_4: siRNA, target gene PDE4D (sense CAGGTAGTTAAGTTAGGGTTA; chemistry not given here; the letters are possibly those of the target site)", "values": [{"measurement": "Infectivity phenotype upon Knockdown", "setting": "C. trachomatis L2", "result": "down"}]}, {"molecule": "Hs_PDE6B_2: siRNA, target gene PDE6B (sense CACGCTGCTCATGACCGGCAA; chemistry not given here; the letters are possibly those of the target site)", "values": [{"measurement": "Infectivity phenotype upon Knockdown", "setting": "C. trachomatis L2", "result": "down"}]}, {"molecule": "Hs_PDE6B_4: siRNA, target gene PDE6B (sense GCCCACCACATTTGACATCTA; chemistry not given here; the letters are possibly those of the target site)", "values": [{"measurement": "Infectivity phenotype upon Knockdown", "setting": "C. trachomatis L2", "result": "down"}]}]}
